Measurements from the Kinase Knowledgebase extract (Sharma et al. 2016).

The molecules below were run against CDK2 (human) (UniProt P24941) (assay: Enzyme Assay).

| SMILES | Ki [nM] |
| --- | --- |
| O=C(CCNc1cc(C2CC2)[nH]n1)Cc1ccc2c(=O)[nH][nH]c2c1 | < 1000 |
| O=c1[nH][nH]c2cc(Oc3cc(Nc4cc(C5CC5)[nH]n4)c4ccccc4n3)ccc12 | < 1000 |
| CN(C)CCNC(=O)c1cc(Nc2cc(C3CC3)[nH]n2)nc(Sc2ccc3c(=O)[nH][nH]c3c2)n1 | < 1000 |
| Cn1cnc(NC(CCOc2ccc3c(=O)[nH][nH]c3c2)c2ccccc2)c1 (stereo not drawn) | < 1000 |
| O=c1[nH][nH]c2cc(Sc3cc4ccccc4c(Nc4cc(C5CC5)[nH]n4)n3)ccc12 | < 1000 |
| COc1cccc2c(Nc3cc(C4CC4)[nH]n3)nc(Sc3ccc4c(=O)[nH][nH]c4c3)nc12 | < 1000 |
| O=C(CCNc1ccccn1)Oc1ccc2c(=O)[nH][nH]c2c1 | < 1000 |
| O=c1[nH][nH]c2cc(NC3CCCC(Nc4nccnn4)C3)ccc12 (stereo not drawn) | < 1000 |
| O=C(CC(=O)Nc1nccnn1)Nc1ccc2c(=O)[nH][nH]c2c1 | < 1000 |
| O=c1[nH][nH]c2cc(NOCCNc3cc(C4CC4)[nH]n3)ccc12 | < 1000 |
| Cc1cc(Nc2cc(-c3cc4c(=O)[nH][nH]c4cc3C(F)(F)F)nc3cnccc23)n[nH]1 | < 1000 |
| Cn1cnc(Nc2cccc(Nc3ccc4c(=O)[nH][nH]c4c3)c2)c1 | < 1000 |
| O=c1[nH][nH]c2cc(OCC3CCCC3Nc3ccccn3)ccc12 (stereo not drawn) | < 1000 |
| O=c1[nH][nH]c2cc(SCCC(Nc3ccccn3)c3ccccc3)ccc12 (stereo not drawn) | < 1000 |
| COCc1cc(Nc2nc(Nc3ccc4c(=O)[nH][nH]c4c3)nc3ccccc23)n[nH]1 | < 1000 |
| Cc1cnc(NC2CCC(Nc3ccc4c(=O)[nH][nH]c4c3)C2)s1 (stereo not drawn) | < 1000 |
| CCCCOC(=O)c1cc(Nc2cc(C)[nH]n2)nc(Sc2ccc3c(=O)[nH][nH]c3c2)n1 | < 1000 |
| O=c1[nH][nH]c2cc(C(F)(F)F)c(-c3nc(Nc4n[nH]c5c(F)cc(F)cc45)c4cnsc4n3)cc12 | < 1000 |
| O=c1[nH][nH]c2cc([C@@H]3C[C@H]3c3nc(Nc4n[nH]c5ccccc45)c4ccccc4n3)ccc12 | < 1000 |

| SMILES | Ki [nM] |
| --- | --- |
| O=c1[nH][nH]c2cc(SC(CCNc3cc(C4CC4)[nH]n3)Cc3ccccc3)ccc12 (stereo not drawn) | < 1000 |
| O=c1[nH][nH]c2cc(OC(CCNc3cc(C4CC4)[nH]n3)Cc3ccccc3)ccc12 (stereo not drawn) | < 1000 |
| Cc1cnc(NCCC(Cc2ccccc2)Sc2ccc3c(=O)[nH][nH]c3c2)s1 (stereo not drawn) | < 1000 |
| O=c1[nH][nH]c2cc(Nc3cc4ccccc4c(Nc4n[nH]c5ccccc45)n3)ccc12 | < 1000 |
| Cc1cc(Nc2cc(Nc3ccc4c(=O)[nH][nH]c4c3)nc3ccccc23)n[nH]1 | < 1000 |
| O=c1[nH][nH]c2cc(Oc3cccc(Nc4cc(C5CC5)[nH]n4)n3)ccc12 | < 1000 |
| Cn1cnc(NC(=O)CC(=O)Cc2ccc3c(=O)[nH][nH]c3c2)c1 | < 1000 |
| O=c1[nH][nH]c2cc(OCCCNc3nccnn3)ccc12 | < 1000 |
| O=c1[nH][nH]c2cc(CCCONc3cc(C4CC4)[nH]n3)ccc12 | < 1000 |
| O=c1[nH][nH]c2cc(OCCONc3cc(C4CC4)[nH]n3)ccc12 | < 1000 |
| Cc1cnc(NOCCNc2ccc3c(=O)[nH][nH]c3c2)s1 | < 1000 |
| O=c1[nH][nH]c2cc(NCC3CCCC3Nc3cc(C4CC4)[nH]n3)ccc12 (stereo not drawn) | < 1000 |
| O=c1[nH][nH]c2cc(SCCC(Nc3cc(C4CC4)[nH]n3)c3ccccc3)ccc12 (stereo not drawn) | < 1000 |
| Cc1cccc(-c2cc(Nc3cc(C)[nH]n3)nc(Oc3ccc4c(=O)[nH][nH]c4c3)n2)c1 | < 1000 |
| Cc1cnc(NCCC(=O)Cc2ccc3c(=O)[nH][nH]c3c2)s1 | < 1000 |
| O=c1[nH][nH]c2cc(SC3COCC(Nc4nccnn4)C3)ccc12 (stereo not drawn) | < 1000 |
| O=c1[nH][nH]c2ccc(-c3nc(Nc4n[nH]c5cc(=O)n(-c6ccc(Oc7ccccc7)cc6)nc45)c4ccccc4n3)cc12 | < 1000 |
| O=c1[nH][nH]c2ccc(-c3nc(Nc4n[nH]c5cc(=O)n(-c6ccccc6)nc45)c4ccccc4n3)cc12 | < 1000 |
| CC(=O)NC1CCC(c2nc(-c3cc4c(=O)[nH][nH]c4cc3C(F)(F)F)nc(Nc3n[nH]c4ccccc34)c2C)CC1 (stereo not drawn) | < 1000 |

| SMILES | Ki [nM] |
| --- | --- |
| Cc1cnc(CC2CCCC2CCc2ccc3c(=O)[nH][nH]c3c2)s1 (stereo not drawn) | < 1000 |
| O=c1[nH][nH]c2cc(OC3COCC(Nc4ccccn4)C3)ccc12 (stereo not drawn) | < 1000 |
| O=c1[nH][nH]c2cc(CCCONc3nccnn3)ccc12 | < 1000 |
| COc1cc(-c2cc(Nc3cc(C)[nH]n3)nc(Nc3ccc4c(=O)[nH][nH]c4c3)n2)cc(OC)c1OC | < 1000 |
| COCCNC(=O)c1cc(Nc2cc(C)[nH]n2)nc(Sc2ccc3c(=O)[nH][nH]c3c2)n1 | < 1000 |
| O=C(CCOc1ccc2c(=O)[nH][nH]c2c1)Nc1cc(C2CC2)[nH]n1 | < 1000 |
| O=C(CCNc1cc(C2CC2)[nH]n1)Nc1ccc2c(=O)[nH][nH]c2c1 | < 1000 |
| Cc1cc(Nc2nc(Sc3ccc4c(=O)[nH][nH]c4c3)nc3c(O)cccc23)n[nH]1 | < 1000 |
| O=c1[nH][nH]c2cc(C(F)(F)F)c(-c3cc(Nc4n[nH]c5ccccc45)c4cccnc4n3)cc12 | < 1000 |
| O=c1[nH][nH]c2cc(Nc3cc(Nc4n[nH]c5ccccc45)c4ccccc4n3)ccc12 | < 1000 |
| Cn1cnc(NCCC(Cc2ccccc2)Cc2ccc3c(=O)[nH][nH]c3c2)c1 (stereo not drawn) | < 1000 |
| O=c1[nH][nH]c2cc(OC3CCC(Nc4nccnn4)C3)ccc12 (stereo not drawn) | < 1000 |
| Cc1cnc(NC(CCCc2ccc3c(=O)[nH][nH]c3c2)c2ccccc2)s1 (stereo not drawn) | < 1000 |
| COCCNc1cc(Nc2cc(C)[nH]n2)nc(SCc2ccc3[nH][nH]c(=O)c3c2)n1 | < 1000 |
| O=c1[nH][nH]c2cc(CC(CCNc3nccnn3)Cc3ccccc3)ccc12 (stereo not drawn) | < 1000 |
| Cc1cc(Nc2cc(-c3cc4c(=O)[nH][nH]c4cc3C(F)(F)F)nc(N3CCNCC3)c2)n[nH]1 | < 1000 |
| Cc1cnc(NC(CCOc2ccc3c(=O)[nH][nH]c3c2)c2ccccc2)s1 (stereo not drawn) | < 1000 |
| O=c1[nH][nH]c2cc(Sc3nc(Nc4n[nH]c5ccccc45)c4ccccc4n3)ccc12 | < 1000 |

Second part, the molecule after the results:

| Ki [nM] | SMILES |
| --- | --- |
| < 1000 | Cc1cc(Nc2nc([C@@H]3C[C@H]3c3ccc4c(=O)[nH][nH]c4c3)nc3ccccc23)n[nH]1 |
| < 1000 | Cc1cc(Nc2cc(N3CCCCC3)nc(SCc3ccc4[nH][nH]c(=O)c4c3)n2)n[nH]1 |
| < 1000 | Cc1cc(Nc2nc(Sc3ccc4c(=O)[nH][nH]c4c3)nc3cc(N)ccc23)n[nH]1 |
| < 1000 | NC1CCCCC1c1cc(Nc2n[nH]c3ccccc23)nc(-c2ccc3[nH][nH]c(=O)c3c2C(F)(F)F)n1 (stereo not drawn) |
| < 1000 | O=c1[nH][nH]c2cc(Sc3nccc(Nc4cc(C5CC5)[nH]n4)n3)ccc12 |
| < 1000 | O=c1[nH][nH]c2cc(C(F)(F)F)c(-c3nc(Nc4n[nH]c5ccccc45)nc(N4CCSCC4)n3)cc12 |
| < 1000 | N#Cc1c(-c2ncnc(Nc3n[nH]c4c3CCCC4)n2)ccc2[nH][nH]c(=O)c12 |
| < 1000 | CS(=O)(=O)N1CCCCC1c1cc(Nc2n[nH]c3ccccc23)nc(-c2ccc3[nH][nH]c(=O)c3c2C(F)(F)F)n1 (stereo not drawn) |
| < 1000 | O=c1[nH][nH]c2ccc(-c3nc(Nc4n[nH]c5ccccc45)cc(-c4cnc[nH]4)n3)c(C(F)(F)F)c12 |
| < 1000 | CN1CCN(c2cccc3c(Nc4n[nH]c5c(F)cccc45)nc(-c4ccc5[nH][nH]c(=O)c5c4C(F)(F)F)nc23)CC1 |
| < 1000 | Cc1cc(Nc2nc(Nc3ccc4c(=O)[nH][nH]c4c3)nc3c2CCN(Cc2ccccc2)C3)n[nH]1 |
| < 1000 | Cc1nc(Nc2cc(-c3ccncc3)nc(-c3ccc4[nH][nH]c(=O)c4c3C(F)(F)F)n2)n[nH]1 |
| < 1000 | Cc1c(Nc2n[nH]c3ccccc23)nc(-c2cc3c(=O)[nH][nH]c3cc2Cl)nc1N1CCOCC1 |
| < 1000 | O=c1[nH][nH]c2cc(Cl)c(-c3cc4c(c(Nc5n[nH]c6ccccc56)n3)CCCC4)cc12 |
| < 1000 | O=c1[nH][nH]c2cc(Nc3nc(Nc4cc(C5CC5)[nH]n4)c4ccc(Cl)cc4n3)ccc12 |
| < 1000 | O=c1[nH][nH]c2ccc(-c3nc4c(c(Nc5n[nH]c6c(F)cccc56)n3)CCCCC4)c(Cl)c12 |
| < 1000 | COCc1cc(Nc2n[nH]c3ccccc23)nc(-c2ccc3[nH][nH]c(=O)c3c2)n1 |
| < 1000 | Cc1cc(Nc2cc(N3CCN(C)CC3)nc(Oc3ccc4c(=O)[nH][nH]c4c3)n2)n[nH]1 |
| < 1000 | Cc1cc(Nc2nc(COc3ccc4c(=O)[nH][nH]c4c3)nc3c2CN(Cc2ccccc2)CC3)n[nH]1 |

| Ki [nM] | SMILES |
| --- | --- |
| < 1000 | O=c1[nH][nH]c2cc(C(F)(F)F)c(-c3cc(Nc4n[nH]c(C5CC5)n4)c4ccccc4n3)cc12 |
| < 1000 | CCc1cc(Nc2cc(C)[nH]n2)nc(Nc2ccc3c(=O)[nH][nH]c3c2)n1 |
| < 1000 | Cc1cc(Nc2cc(N3CCOCC3)nc(OCc3ccc4c(=O)[nH][nH]c4c3)n2)n[nH]1 |
| < 1000 | Cc1nc(-c2ccc3[nH][nH]c(=O)c3c2C(F)(F)F)nc(Nc2n[nH]c3ccccc23)c1C |
| < 1000 | Cc1cc(Nc2nc(COc3ccc4[nH][nH]c(=O)c4c3)nc3c2CCCCC3)n[nH]1 |
| < 1000 | Cc1cccc2c(Nc3cc(-c4ccco4)[nH]n3)nc(-c3ccc4[nH][nH]c(=O)c4c3OC(F)(F)F)nc12 |
| < 1000 | Cc1cc(Nc2nc(CSc3ccc4[nH][nH]c(=O)c4c3)nc3c2CCCC3)n[nH]1 |
| < 1000 | Cc1cc(Nc2nc(-c3ccc4[nH][nH]c(=O)c4c3)nc3cnccc23)n[nH]1 |
| < 1000 | CCc1cc(Nc2cc(C)[nH]n2)nc(C2(c3ccc4c(=O)[nH][nH]c4c3)CCC2)n1 |
| < 1000 | CCc1cccc2c(Nc3cc(C)[nH]n3)nc(-c3ccc4[nH][nH]c(=O)c4c3OC(F)(F)F)nc12 |
| < 1000 | NCCOc1cccc2c(Nc3n[nH]c4ccccc34)nc(-c3ccc4[nH][nH]c(=O)c4c3C(F)(F)F)nc12 |
| < 1000 | Nc1cncc(-c2nc(Nc3n[nH]c4ccccc34)nc(-c3cc4c(=O)[nH][nH]c4cc3C(F)(F)F)n2)c1 |
| < 1000 | O=c1[nH][nH]c2ccc(-c3nc4c(c(Nc5n[nH]c6c(F)cc(F)cc56)n3)CCCC4)c(C(F)(F)F)c12 |
| < 1000 | Cc1cc(Nc2nc(C(C)(C)c3ccc4c(=O)[nH][nH]c4c3)nc3c2CCCCC3)n[nH]1 |
| < 1000 | Cc1cc(Nc2cc(C)[nH]n2)nc(Nc2ccc3c(=O)[nH][nH]c3c2)n1 |
| < 1000 | O=c1[nH][nH]c2ccc(-c3nc4c(c(Nc5n[nH]c6ccccc56)n3)CCCC4)c(C(F)(F)F)c12 |
| < 1000 | O=c1[nH][nH]c2cc(C(F)(F)F)c(-c3nc(Nc4n[nH]c5c(F)cc(F)cc45)c4nccnc4n3)cc12 |
| < 1000 | O=c1[nH][nH]c2ccc(OCc3cc4ccccc4c(Nc4cc(C5CC5)[nH]n4)n3)cc12 |
